Laboratory results reported in patent publication US20250171495A1, “MUTLI-TARGETED SERINE PROTEASE INHIBITORS FOR TREATMENT OF CANCER AND VIRAL INFECTION” (Washington University, priority 2023, published 2025).
Like-named read-outs stand apart in the source and are kept apart here.

How the values were obtained:
Assay type in all cases: biochemical
hepsin = target: T1, hepsin (Homo sapiens, UniProt P05981); test: Fluorogenic kinetic enzyme inhibitor assay, hepsin
T1 construct: purchased R&D Systems 4776-SE-010

HGFA = target: T2, HGFA (Homo sapiens, UniProt Q04756); test: Fluorogenic kinetic enzyme inhibitor assay, HGFA
T2 construct: purchased R&D Systems 1514-SE-010
T2 sequence (Q04756 408-655 limits assumed): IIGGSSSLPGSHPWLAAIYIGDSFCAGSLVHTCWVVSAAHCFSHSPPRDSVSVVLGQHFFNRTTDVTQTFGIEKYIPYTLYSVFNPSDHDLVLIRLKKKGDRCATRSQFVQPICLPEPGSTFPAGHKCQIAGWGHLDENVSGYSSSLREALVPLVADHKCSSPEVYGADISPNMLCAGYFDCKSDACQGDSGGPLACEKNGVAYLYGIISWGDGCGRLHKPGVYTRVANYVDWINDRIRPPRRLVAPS
T2 sequence (Q04756 373-407 partner limits assumed): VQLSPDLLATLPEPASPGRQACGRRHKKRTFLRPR

TMPRSS2 = TMPRSS2 (Homo sapiens, UniProt O15393); test: Fluorogenic kinetic enzyme inhibitor assay, TMPRSS2; set-up: purchased Cusabio Technology CSB-YP023924HU
Factor Xa = target: T3, Factor Xa (Homo sapiens, UniProt P00742); test: Fluorogenic assay, Factor Xa; settings: read-out: Factor Xa IC50
T3 construct: TMPRSS2; Matriptase; Hepsin; HGFA; Thrombin; Factor Xa

matriptase = target: T4, matriptase (Homo sapiens, UniProt Q9Y5Y6); test: Fluorogenic kinetic enzyme inhibitor assay, matriptase
T4 construct: purchased R&D Systems 3946-SEB-010
T4 sequence (Q9Y5Y6 615-855 limits assumed): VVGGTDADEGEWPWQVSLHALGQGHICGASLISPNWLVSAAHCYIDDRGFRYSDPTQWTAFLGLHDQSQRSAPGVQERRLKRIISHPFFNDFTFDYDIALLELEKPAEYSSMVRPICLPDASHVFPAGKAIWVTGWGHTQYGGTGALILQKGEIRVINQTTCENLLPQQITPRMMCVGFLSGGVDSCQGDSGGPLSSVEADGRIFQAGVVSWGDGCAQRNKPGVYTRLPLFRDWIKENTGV

Thrombin = Thrombin (Homo sapiens, UniProt P00734); test: Fluorogenic assay, thrombin
[1] = 30 min incubation, Boc-QLR-AMC at Km, read-out: HGFA IC50
[2] = 30 min incubation, Boc-QAR-AMC at Km, read-out: TMPRSS2 IC50
[3] = 30 min incubation, Boc-QAR-AMC at Km, read-out: Hepsin IC50

T1 sequence (P05981 163-417 limits assumed): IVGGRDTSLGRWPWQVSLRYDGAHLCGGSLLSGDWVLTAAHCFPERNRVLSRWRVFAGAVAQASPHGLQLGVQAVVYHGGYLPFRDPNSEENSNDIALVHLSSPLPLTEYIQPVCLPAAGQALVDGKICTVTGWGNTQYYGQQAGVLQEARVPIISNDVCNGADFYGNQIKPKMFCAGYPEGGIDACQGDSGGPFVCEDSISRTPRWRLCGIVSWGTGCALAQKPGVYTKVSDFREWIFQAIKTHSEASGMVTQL
T1 sequence (P05981 1-162 partner limits assumed): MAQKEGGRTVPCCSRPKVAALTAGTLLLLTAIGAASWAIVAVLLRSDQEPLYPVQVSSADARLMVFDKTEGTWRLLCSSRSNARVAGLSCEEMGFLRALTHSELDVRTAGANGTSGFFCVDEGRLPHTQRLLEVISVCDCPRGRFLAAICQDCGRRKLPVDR
TMPRSS2, sequence (O15393 106-492 limits assumed): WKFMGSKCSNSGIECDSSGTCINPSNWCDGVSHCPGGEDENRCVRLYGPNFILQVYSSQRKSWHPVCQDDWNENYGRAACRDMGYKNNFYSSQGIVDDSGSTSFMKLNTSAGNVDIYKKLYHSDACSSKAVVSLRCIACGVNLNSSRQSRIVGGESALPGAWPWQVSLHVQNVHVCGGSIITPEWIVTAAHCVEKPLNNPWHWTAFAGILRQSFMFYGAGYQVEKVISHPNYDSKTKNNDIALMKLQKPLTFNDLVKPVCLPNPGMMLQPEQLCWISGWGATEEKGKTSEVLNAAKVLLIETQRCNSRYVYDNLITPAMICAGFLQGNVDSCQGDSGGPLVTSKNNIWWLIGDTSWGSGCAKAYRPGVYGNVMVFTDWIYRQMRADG
T3 sequence (P00742 235-488 limits assumed): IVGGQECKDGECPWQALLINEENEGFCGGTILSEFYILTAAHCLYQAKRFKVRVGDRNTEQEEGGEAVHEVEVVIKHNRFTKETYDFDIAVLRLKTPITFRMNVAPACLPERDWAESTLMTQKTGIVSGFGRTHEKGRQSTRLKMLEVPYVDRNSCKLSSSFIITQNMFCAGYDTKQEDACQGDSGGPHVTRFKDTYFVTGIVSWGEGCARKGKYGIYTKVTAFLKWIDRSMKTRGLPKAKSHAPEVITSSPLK
T3 sequence (P00742 41-179 partner limits assumed): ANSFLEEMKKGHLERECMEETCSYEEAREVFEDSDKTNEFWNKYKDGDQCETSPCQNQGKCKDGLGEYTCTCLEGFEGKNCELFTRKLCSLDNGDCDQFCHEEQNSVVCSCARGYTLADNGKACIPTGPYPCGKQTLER

SMILES | IC50 (hepsin; read-out: Hepsin IC50) [nM] | IC50 (HGFA; read-out: HGFA IC50) [nM] | IC50 (TMPRSS2; read-out: TMPRSS2 IC50) [nM] | IC50 (Factor Xa) [nM] | IC50 (matriptase; read-out: Matriptase IC50) [nM] | IC50 (HGFA; [1]) [nM] | IC50 (Thrombin) [nM] | other results
CCC(C)[C@H](NC(C)=O)C(=O)N[C@@H](CCC(N)=O)C(=O)N[C@@H](Cc1ccccc1)C(=O)N[C@@H](CCCNC(=N)N)C(=O)c1nc2ccccc2s1 (stereo partly drawn) [MM3116, N-[(S)-1-[N-(S)-1-[(1,3-benzothiazol-2-yl)carbonyl]-4-guanidinobutylcarbamoyl]-2-phenylethyl](S)-2-[(2S)-2-acetylamino-3-methylvalerylamino]glutaramide] | 0.14 | 30 | 1.73 | 792 | 0.92 | – | – | –
CC(=O)NCC(=O)N[C@@H](CCC(N)=O)C(=O)N[C@@H](Cc1ccccc1)C(=O)N[C@@H](CCCNC(=N)N)C(=O)c1nc2ccccc2s1 [MM3122, N-[(S)-1-[N-(S)-1-[(1,3-benzothiazol-2-yl)carbonyl]-4-guanidinobutylcarbamoyl]-2-phenylethyl](S)-2-[(acetylaminomethyl)carbonylamino]glutaramide] | 0.194 | – | 0.03 | 700 | 0.314 | – | – | IC50 (HGFA): 32.5 nM
CC(=O)N1CCC[C@H]1C(=O)N[C@@H](CCC(N)=O)C(=O)N[C@@H](Cc1ccccc1)C(=O)N[C@@H](CCCNC(=N)N)C(=O)c1nc2ccccc2s1 [MM3123, N-[(S)-1-[N-(S)-1-[(1,3-benzothiazol-2-yl)carbonyl]-4-guanidinobutylcarbamoyl]-2-phenylethyl](S)-2-[(S)-1-acetyl-2-pyrrolidinylcarbonylamino] glutaramide] | – | 75 | 0.06 | 199 | 0.316 | – | – | IC50 (hepsin): 0.135 nM
CC(=O)N[C@@H](CCC(N)=O)C(=O)N[C@@H](Cc1ccccc1)C(=O)N[C@@H](CCCNC(=N)N)C(=O)c1nc2ccccc2s1 [MM3144, N-[(S)-1-[N-(S)-1-[(1,3-benzothiazol-2-yl)carbonyl]-4-guanidinobutylcarbamoyl]-2-phenylethyl](S)-2-acetylaminoglutaramide] | – | – | – | 4.5 | – | 14 | – | –
CCC(C)[C@H](NC(C)=O)C(=O)N[C@@H](CCC(N)=O)C(=O)N[C@H](C(=O)N[C@H](CCCNC(=N)N)C(=O)c1nc2ccccc2s1)C(C)C (stereo partly drawn) [MM3180-1, N-[(S)-2-methyl-1-[N-(R)-1-[(1,3-benzothiazol-2-yl)carbonyl]-4-guanidinobutylcarbamoyl]propyl](S)-2-[(2S)-2-acetylamino-3-methylvalerylamino]glutaramide] | – | 14600 | 2.89 | > 20000 | – | – | > 20000 | –
CCC(C)[C@H](NC(C)=O)C(=O)N[C@@H](CCC(N)=O)C(=O)N[C@H](C(=O)N[C@@H](CCCNC(=N)N)C(=O)c1nc2ccccc2s1)C(C)O (stereo partly drawn) [MM3186, N-[(1S)-2-hydroxy-1-[N-(S)-1-[(1,3-benzothiazol-2-yl)carbonyl]-4-guanidinobutylcarbamoyl]propyl](S)-2-[(2S)-2-acetylamino-3-methylvalerylamino]glutaramide] | – | 18400 | 0.173 | > 20000 | – | – | > 20000 | IC50 (matriptase): 15.5 nM
CC(=O)N[C@H]1CC(=O)NCCCC[C@@H](C(=O)N[C@@H](CCCNC(=N)N)C(=O)c2nc3ccccc3s2)NC(=O)[C@H](CCC(N)=O)NC1=O [VD3152, N-[(S)-1-[(1,3-benzothiazol-2-yl)carbonyl]-4-guanidinobutyl]-(3S,6S,14S)-6-acetylamino-3-(2-carbamoylethyl)-2,5,8-trioxo-1,4,9-triaza-14-cyclotetradecane-carboxamide] | – | – | 24.3 | – | 7.7 | 16100 | > 20000 | –
CC(=O)N[C@H]1Cc2ccc(cc2)OC/C=C\CNC(=O)CC[C@@H](C(=O)N[C@@H](CCCNC(=N)N)C(=O)c2nc3ccccc3s2)NC(=O)[C@H](CC(C)C)NC1=O [VD4018, N-[(S)-1-[(1,3-benzothiazol-2-yl)carbonyl]-4-guanidinobutyl]-(4Z,11S,14S,17S)-17-acetylamino-14-isobutyl-8,13,16-trioxo-2-oxa-7,12,15-triazabicyclo[17.2.2]tricosa-1(21),4,19,22-tetraene-11-carboxamide] | – | – | – | 12400 | – | 6500 | – | IC50 (TMPRSS2; [2]): 2.48 nM
CC(=O)N[C@H]1Cc2ccc(cc2)OC/C=C\CNC(=O)C[C@@H](C(=O)N[C@@H](CCCNC(=N)N)C(=O)c2nc3ccccc3s2)NC(=O)[C@H](CC(C)C)NC1=O [VD4054, N-[(S)-1-[(1,3-benzothiazol-2-yl)carbonyl]-4-guanidinobutyl]-(4Z,10S,13S,16S)-16-acetylamino-13-isobutyl-8,12,15-trioxo-2-oxa-7,11,14-triazabicyclo[16.2.2]docosa-1(20),4,18,21-tetraene-10-carboxamide] | – | > 20000 | 21.6 | 3180 | 44 | – | – | IC50 (hepsin; [3]): 0.99 nM
CC(=O)N[C@H]1Cc2cn(nn2)CCCC[C@H](C(=O)N[C@@H](CCCNC(=N)N)C(=O)c2nc3ccccc3s2)NC(=O)[C@H](CC(C)C)NC1=O [VD4090, N-[(S)-1-[(1,3-benzothiazol-2-yl)carbonyl]-4-guanidinobutyl]-(6R,9S,12S)-12-acetylamino-9-isobutyl-8,11-dioxo-1,7,10,15,16-pentaazabicyclo[12.2.1]heptadeca-14(17),15-diene-6-carboxamide] | – | – | – | 4290 | – | 3080 | > 20000 | IC50 (TMPRSS2; [2]): 4.19 nM
CC(=O)N[C@H]1Cc2ccc(cc2)OCCCC[C@@H](C(=O)N[C@@H](CCCNC(=N)N)C(=O)c2nc3ccccc3s2)NC(=O)[C@H](Cc2ccccc2)NC1=O [VD4111B, N-[(S)-1-[(1,3-benzothiazol-2-yl)carbonyl]-4-guanidinobutyl]-(7S,10S,13S)-13-acetylamino-10-benzyl-9,12-dioxo-2-oxa-8,11-diazabicyclo[13.2.2]nonadeca-1(17),15,18-triene-7-carboxamide] | – | – | 16.4 | 8700 | – | – | > 20000 | –
CC(=O)N[C@H]1Cc2cccc(c2)Oc2ccc(cc2)C[C@@H](C(=O)N[C@@H](CCCNC(=N)N)C(=O)c2nc3ccccc3s2)NC(=O)[C@H](CC(C)C)NC1=O [VD5123B, N-[(S)-1-[(1,3-benzothiazol-2-yl)carbonyl]-4-guanidinobutyl]-(9S,12S,15S)-9-acetylamino-12-isobutyl-10,13-dioxo-2-oxa-11,14-diazatricyclo[15.2.2.1^3,^7] docosa-1(19),3,5,7(22), 17,20-hexaene-15-carboxamide] | – | – | 15.2 | – | 140 | 3980 | – | IC50 (hepsin; [3]): 36.9 nM
CC(=O)N[C@@H](CO)C(=O)N[C@@H](CCC(N)=O)C(=O)N[C@@H](CC(C)C)C(=O)N[C@@H](CCCNC(=N)N)C(=O)c1nccs1 [ZFH6138, N-[(S)-3-methyl-1-[N-(S)-4-guanidino-1-[(1,3-thiazol-2-yl)carbonyl]butylcarbamoyl]butyl](S)-2-[(S)-2-acetylamino-3-hydroxypropionylamino]glutaramide] | 0.68 | – | 1.54 | – | – | – | – | IC50 (HGFA): 364 nM; IC50 (matriptase): 18 nM
CC(=O)N[C@@H](CC(C)C)C(=O)N[C@@H](CC(C)C)C(=O)N[C@@H](CCCNC(=N)N)C(=O)c1nccs1 [ZFH6201-1, N-[(S)-4-guanidino-1-[(1,3-thiazol-2-yl)carbonyl]butyl](S)-2-[(S)-2-acetylamino-4-methylvalerylamino]-4-methylvaleramide] | 4.6 | 506 | 44.2 | – | 56 | – | – | –
CC(=O)N[C@@H](CCCCN)C(=O)N[C@@H](CCC(N)=O)C(=O)N[C@@H](CC(C)C)C(=O)N[C@@H](CCCNC(=N)N)C(=O)c1nc2ccccc2s1 [ZFH7006, N-[(S)-3-methyl-1-[N-(S)-1-[(1,3-benzothiazol-2-yl)carbonyl]-4-guanidinobutylcarbamoyl]butyl](S)-2-[(S)-1-acetylamino-5-aminopentylcarbonyl-amino]glutaramide] | 0.17 | – | – | 258 | 1.1 | 60 | – | IC50 (TMPRSS2): 18.1 nM
CC(=O)N[C@@H](CO)C(=O)N[C@@H](CCCCN)C(=O)N[C@@H](CC(C)C)C(=O)N[C@@H](CCCNC(=N)N)C(=O)c1nc2ccccc2s1 [ZFH7053, N-[(S)-3-methyl-1-[N-(S)-1-[(1,3-benzothiazol-2-yl)carbonyl]-4-guanidinobutylcarbamoyl]butyl](S)-2-[(S)-2-acetylamino-3-hydroxypropionylamino]-6-aminohexanamide] | 0.32 | – | – | 3800 | 6.1 | 66 | – | IC50 (TMPRSS2): 39.2 nM
